Values quoted from earlier work in patent publication US5043107A, “Preparation small unilamellar vesicles including polyene antifungal antibiotics” (Vestar Research, Inc., priority 1989, dated 1991).

How the values were obtained:
[1] = in vivo
[2] = Tremblay et al.
[3] = mammals; clinical use at therapeutic dose levels

Molecule | host toxicity [1] | acute 50% lethal dose (LD50) [2] | toxicity [3]
liposomal Amphotericin B | decreased host toxicity |  | 
C[C@@H]1[C@H](O)[C@@H](C)/C=C/C=C/C=C/C=C/C=C/C=C/C=C/[C@H](O[C@@H]2O[C@H](C)[C@@H](O)[C@H](N)[C@@H]2O)C[C@@H]2O[C@](O)(C[C@@H](O)C[C@@H](O)[C@H](O)CC[C@@H](O)C[C@@H](O)CC(=O)O[C@H]1C)C[C@H](O)[C@H]2C(=O)O [Amphotericin B, amphotericin B] |  | 2.3 mg/kg | acute hemolytic crisis and eventual kidney failure
